Data as given in patent US20210393610A1, “COMPOSITIONS AND METHODS FOR TREATING GOUT AND HYPERURICEMIA” (Jiangsu Hengrui Medicine Co., Ltd., priority 2018, published 2021).
One block for each compound: values may come before it.

Assays:
[1] = PK interaction of the compound of Formula I-1, febuxostat and colchicine (PK parameters in plasma); settings: for AUC: plasma, oral, AUCss of the compound of Formula I-1, geometric mean
Experimental: (§1) The subjects were screened and examined on D-21 to D-15. 0.5 mg of colchicine once a day (qd) were orally administered to those who passed the screening on an empty stomach (D-14 to D16). If the subject was receiving an uric acid-lowering therapy (including allopurinol, febuxostat, benzbromarone, probenecid and the like) at the time of screening, the drug should be withdrawn for at least 2 weeks before D1. The subjects were admitted to the phase I clinical trial ward on D-2, and medical history inquiry, physical examination, vital signs examination, 12-lead electrocardiogram (ECG) examination, blood pregnancy examination (for female of childbearing age) were conducted again [if D-2 was more than 20 days away from the screening period, then blood examination, urine routine examination, CK\CK-MB, blood biochemistry (including serum creatinine and uric acid) examination were also required].
During the hospital stay, the subjects were fasted for more than 10 hours after dinner everyday (with free access to water). […] On D2, the subjects on an empty stomach were subjected to blood sampling, followed by having a standard meal which should be eaten within 20 minutes. Except for before the drug administration and 1 hour after the drug administration, water was consumed as needed at other times. On D3 to 8, no less than 2 L of water was consumed daily. On D9, the subjects can be discharged from the hospital after completing relevant examinations and operations, with a total hospital stay of 10 days. On D16 to 23, the subjects came back to the phase I clinical trial ward for follow-up. Throughout the study period, the subjects should avoid strenuous exercise and prolonged bed rest. The drug administration scheme is detailed in Table 1.
Colchicine tablets: D-14 to D16, 0.5 mg qd, orally administered on an empty stomach; Febuxostat tablets: D1 and D8, 80 mg qd, orally administered on an empty stomach; Tablets of the compound of Formula I-1: D3 to D8, 10 mg qd, orally administered on an empty stomach.
G. Main Observation Indicator • i. PK parameters of the compound of Formula I-1, febuxostat (Ruiyang®) and colchicine in plasma.

serum uric acid (sUA) = experiment: PD interaction: serum uric acid (sUA) level after separate and combined administration; type: in vivo, patients suffering from gout
Experimental: as §1
During the hospital stay, the subjects were fasted for more than 10 hours after dinner everyday (with free access to water). […] On D2, the subjects on an empty stomach were subjected to blood sampling, followed by having a standard meal which should be eaten within 20 minutes. Except for before the drug administration and 1 hour after the drug administration, water was consumed as needed at other times. On D3 to 8, no less than 2 L of water was consumed daily. […]

sUA = settings: after 6 months; febuxostat alone group; cited from earlier work
[2] = febuxostat alone group v.s. lesinurad 400 mg plus febuxostat group; cited from earlier work
[3] = combined administration with febuxostat 80 mg
[4] = combined administration with the compound of Formula I-1, no statistical difference (P>0.05)
[5] = impact of compound of Formula I-1 on colchicine
[6] = impact of febuxostat on colchicine
[7] = single administration (colchicine 0.5 mg qd)
[8] = impact of febuxostat on the compound of Formula I-1

SMILES: COc1cc2c(c(OC)c1OC)-c1ccc(OC)c(=O)cc1[C@@H](NC(C)=O)CC2 [colchicine]
Css, max of colchicine, geometric mean ([1]; combined administration with compound of Formula I-1 10 mg qd): 2.2048 ng/mL
AUCss of colchicine, geometric mean [1, 3]: 18.3270 ng·h/mL
Css, max of colchicine, geometric mean [1, 3]: 2.2601 ng/mL
decrease of Css,max of colchicine ([1]; combined administration with febuxostat, no statistical difference (P>0.05)): 9.92%
decrease of AUCss of colchicine [1, 4]: 9.84%
decrease of Css,max of colchicine [1, 4]: 12.12%
AUCss of colchicine, Ratio (combined administration vs single administration) [1, 5]: 90.16%
Css, max of colchicine, Ratio (combined administration vs single administration) [1, 5]: 87.88%
AUCss of colchicine, Ratio (combined administration vs single administration) [1, 6]: 99.43%
Css, max of colchicine, Ratio (combined administration vs single administration) [1, 6]: 90.08%
AUCss of colchicine, geometric mean [1, 7]: 18.4329 ng·h/mL
Css, max of colchicine, geometric mean [1, 7]: 2.5089 ng/mL

effect of febuxostat on the steady-state exposure level of the compound of Formula I-1 ([1]; combined administration of febuxostat and the compound of Formula I-1): substantially no effect
Css, max of the compound of Formula I-1, geometric mean ([1]; combined administration with febuxostat 80 mg (colchicine background)): 1687.45 ng/mL
AUC ([1]; human, combined administration with febuxostat 80 mg (colchicine background)): 14700 ng·h/mL
AUC ([1]; human, single administration, 10 mg qd (colchicine 0.5 mg qd background)): 14400 ng·h/mL
AUCss of the compound of Formula I-1, Ratio (combined administration vs single administration) [1, 8]: 102.31%
Css, max of the compound of Formula I-1, Ratio (combined administration vs single administration) [1, 8]: 101.68%
Css, max of the compound of Formula I-1, geometric mean ([1]; single administration, 10 mg qd (colchicine 0.5 mg qd background)): 1659.60 ng/mL
SMILES: O=C([O-])C1(Sc2ccnc3ccc(Br)cc23)CCC1.[Na+] [compound of Formula I-1]
average maximum reduction of serum sUA concentration (serum uric acid (sUA); compound of Formula I-1 10 mg qd administered sequentially, relative to baseline (D3-0 h)): 60.883%

AUC0-last of febuxostat, Ratio (combined administration vs single administration) ([1]; human, in vivo): 88.54%
Cmax of febuxostat, Ratio (combined administration vs single administration) ([1]; human, in vivo): 86.42%
SMILES: Cc1nc(-c2ccc(OCC(C)C)c(C#N)c2)sc1C(=O)O [febuxostat]
average maximum reduction of serum uric acid (sUA) concentration (serum uric acid (sUA); single administration of febuxostat 80 mg, compared with single administration of colchicine at steady state): 22.144%
proportion of patients who achieved sUA<5.0 mg/dl (sUA): 46.8%
incidence of kidney-related adverse events [2]: 5.5%
serum creatinine increased ≥ 1.5 times the baseline [2]: 2.8%
serum creatinine increased ≥2 times the baseline [2]: 0%
